Laboratory results from ChEMBL document CHEMBL1201862, “PubChem BioAssay data set” (2004).
The source made the active and inactive calls.

Legend:
fMet-Leu-Phe receptor = target: T1, fMet-Leu-Phe receptor (Homo sapiens, UniProt P21462); assay: FPR ligands, dose response (AID 519); format: functional
T1 sequence (P21462 whole entry): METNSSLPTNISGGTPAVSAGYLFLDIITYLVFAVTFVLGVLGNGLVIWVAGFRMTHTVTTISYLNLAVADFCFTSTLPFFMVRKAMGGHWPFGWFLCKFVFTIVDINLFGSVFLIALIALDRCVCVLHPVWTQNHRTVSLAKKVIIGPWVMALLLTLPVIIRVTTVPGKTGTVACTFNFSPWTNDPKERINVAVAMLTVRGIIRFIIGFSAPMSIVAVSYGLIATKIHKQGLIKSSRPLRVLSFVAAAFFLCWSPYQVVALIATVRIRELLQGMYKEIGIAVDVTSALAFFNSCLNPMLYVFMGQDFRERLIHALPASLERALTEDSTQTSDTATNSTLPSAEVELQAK

[1] = cytotoxicity in HEK-293T cells, dose response, cytotoxicity control for TCR NF-kB inhibitor project, luminescence, T-cell screen hits (AID 489026); format: functional, cell-based;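 also: cells exposed to compound about 14 hours before the viability readout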
[2] = target: T2, COUP transcription factor 2 (Homo sapiens, UniProt P24468); assay: Luminescence-based cell-based high throughput dose response assay to identify inhibitors of COUP-TFII (NR2F2).; format: functional;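 also: HEK293 cells transiently cotransfected with COUP-TFII expression vector and reporter; luciferase reporter luminescence driven by COUP-TFII from the pX2-168 reporter plasmid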
T2 sequence (P24468 whole entry): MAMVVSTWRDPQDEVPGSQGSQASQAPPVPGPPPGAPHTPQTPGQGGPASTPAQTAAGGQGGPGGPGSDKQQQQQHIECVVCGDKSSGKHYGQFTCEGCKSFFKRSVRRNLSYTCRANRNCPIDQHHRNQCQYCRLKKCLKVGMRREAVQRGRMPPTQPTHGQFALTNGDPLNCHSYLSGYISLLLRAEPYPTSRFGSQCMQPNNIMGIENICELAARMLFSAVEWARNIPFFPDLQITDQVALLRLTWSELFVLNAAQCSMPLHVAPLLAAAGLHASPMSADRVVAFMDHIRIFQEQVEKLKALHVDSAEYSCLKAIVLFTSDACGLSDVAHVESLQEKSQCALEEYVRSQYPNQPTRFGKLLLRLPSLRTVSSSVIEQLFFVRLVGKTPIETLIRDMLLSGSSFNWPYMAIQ

INS1 = assay: beta cell apoptosis inhibitors, cytokine rescue, dose response, luminescence, retest (AID 449756); format: functional, cell-based; conditions: Rattus norvegicus;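 also: cell death triggered by IL-1 beta plus TNF-alpha plus IFN-gamma mixture; protective hits raise ATP signal compared with cytokine alone wells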
Caspase-6 = target: T3, Caspase-6 (Homo sapiens, UniProt P55212); assay: human caspase-6 inhibitors, dose response, biochemical, VEID-R110 fluorescence, cherry-pick (AID 720632)
T3 sequence (P55212 whole entry): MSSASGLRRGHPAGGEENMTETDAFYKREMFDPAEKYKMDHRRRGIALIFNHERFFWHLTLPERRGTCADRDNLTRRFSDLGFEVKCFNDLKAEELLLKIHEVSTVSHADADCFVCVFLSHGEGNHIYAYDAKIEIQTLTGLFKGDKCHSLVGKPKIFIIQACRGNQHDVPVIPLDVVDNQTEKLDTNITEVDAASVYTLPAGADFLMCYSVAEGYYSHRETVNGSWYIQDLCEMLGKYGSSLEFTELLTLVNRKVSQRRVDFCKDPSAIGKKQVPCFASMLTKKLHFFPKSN

[3] = target: T4, Endoribonuclease toxin MazF (Escherichia coli K-12, UniProt P0AE70); assay: MazF toxin RNase activators, dose response, biochemical, fluorescence, single-stranded RNA substrate, uHTS hits (AID 588481); format: functional
T4 sequence (P0AE70 whole entry): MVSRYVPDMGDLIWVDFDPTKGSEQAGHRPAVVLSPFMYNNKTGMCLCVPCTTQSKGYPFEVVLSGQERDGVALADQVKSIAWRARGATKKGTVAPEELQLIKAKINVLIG

[4] = target: T4, Endoribonuclease toxin MazF; assay: fluorescent RNA oligo signal without MazF, dose response, counter-screen for MazEF activator project, biochemical, fluorescence, single-stranded RNase substrate (AID 588502); format: functional
cells [5] = format: functional, cell-based
cells [6] = format: functional, cell-based; remark: listed apart in the source
Genome polyprotein = Genome polyprotein (dengue virus type 2, UniProt P29990); assay: Dengue-2 NS5 methyltransferase inhibitors, primary screen, biochemical, confirmation dose response (AID 588689); format: functional
[7] = target: T5, Apoptotic protease-activating factor 1 (Homo sapiens, UniProt O14727); format: functional
T5 sequence (O14727 whole entry): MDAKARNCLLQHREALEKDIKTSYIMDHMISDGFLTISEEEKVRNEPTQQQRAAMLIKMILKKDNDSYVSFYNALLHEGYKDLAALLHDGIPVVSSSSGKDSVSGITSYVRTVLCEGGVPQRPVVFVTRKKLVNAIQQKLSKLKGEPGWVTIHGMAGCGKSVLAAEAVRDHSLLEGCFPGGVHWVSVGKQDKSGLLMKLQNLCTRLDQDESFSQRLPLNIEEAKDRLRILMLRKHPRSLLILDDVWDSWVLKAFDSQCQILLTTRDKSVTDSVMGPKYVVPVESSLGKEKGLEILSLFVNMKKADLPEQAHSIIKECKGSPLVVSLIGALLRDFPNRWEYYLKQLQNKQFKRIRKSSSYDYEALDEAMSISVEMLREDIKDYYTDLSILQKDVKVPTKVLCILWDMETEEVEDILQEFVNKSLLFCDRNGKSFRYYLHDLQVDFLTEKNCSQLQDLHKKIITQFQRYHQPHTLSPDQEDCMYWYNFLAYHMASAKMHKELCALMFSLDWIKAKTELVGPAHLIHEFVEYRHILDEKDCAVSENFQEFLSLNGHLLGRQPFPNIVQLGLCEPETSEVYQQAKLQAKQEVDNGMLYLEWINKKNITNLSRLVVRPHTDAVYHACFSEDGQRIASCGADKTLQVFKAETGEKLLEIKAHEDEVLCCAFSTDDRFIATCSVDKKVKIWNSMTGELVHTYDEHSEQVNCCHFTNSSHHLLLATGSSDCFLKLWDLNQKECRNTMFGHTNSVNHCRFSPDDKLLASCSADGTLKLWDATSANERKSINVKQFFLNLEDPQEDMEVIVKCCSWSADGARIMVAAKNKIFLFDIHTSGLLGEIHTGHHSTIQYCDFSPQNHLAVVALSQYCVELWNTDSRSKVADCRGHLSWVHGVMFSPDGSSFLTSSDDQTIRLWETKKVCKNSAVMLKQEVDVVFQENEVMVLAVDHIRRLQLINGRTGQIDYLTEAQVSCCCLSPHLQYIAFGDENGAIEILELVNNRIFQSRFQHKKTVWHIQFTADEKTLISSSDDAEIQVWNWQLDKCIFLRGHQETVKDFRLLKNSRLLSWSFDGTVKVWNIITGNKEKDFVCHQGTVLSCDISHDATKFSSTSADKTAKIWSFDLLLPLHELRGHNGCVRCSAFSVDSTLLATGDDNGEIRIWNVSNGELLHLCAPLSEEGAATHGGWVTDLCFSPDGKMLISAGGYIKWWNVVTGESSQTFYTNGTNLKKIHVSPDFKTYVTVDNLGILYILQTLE

[8] = MC4R antagonists, dose response, counter-screen for LGR2 antagonist project, cell-based, plate reader, cherry pick (AID 743444); format: functional;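 also: transfected HEK 293 cells stimulated with alpha-MSH peptide; potency of inhibitors of the alpha-MSH evoked signal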
HEK293 = assay: inhibitors of LMP1-driven NF-kB reporter, dose response, cell-based, HEK293, luciferase, cherry-pick (AID 588343); format: functional; conditions: Homo sapiens
[9] = LGR2 antagonists, dose response, cell-based, HEK293, CRE-luciferase reporter, cherry pick, set 2 (AID 743343); format: functional;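 also: transfected cells were stimulated with diluted bursicon conditioned medium after compound addition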

Genome polyprotein, sequence (P29990 2492-3391 limits assumed): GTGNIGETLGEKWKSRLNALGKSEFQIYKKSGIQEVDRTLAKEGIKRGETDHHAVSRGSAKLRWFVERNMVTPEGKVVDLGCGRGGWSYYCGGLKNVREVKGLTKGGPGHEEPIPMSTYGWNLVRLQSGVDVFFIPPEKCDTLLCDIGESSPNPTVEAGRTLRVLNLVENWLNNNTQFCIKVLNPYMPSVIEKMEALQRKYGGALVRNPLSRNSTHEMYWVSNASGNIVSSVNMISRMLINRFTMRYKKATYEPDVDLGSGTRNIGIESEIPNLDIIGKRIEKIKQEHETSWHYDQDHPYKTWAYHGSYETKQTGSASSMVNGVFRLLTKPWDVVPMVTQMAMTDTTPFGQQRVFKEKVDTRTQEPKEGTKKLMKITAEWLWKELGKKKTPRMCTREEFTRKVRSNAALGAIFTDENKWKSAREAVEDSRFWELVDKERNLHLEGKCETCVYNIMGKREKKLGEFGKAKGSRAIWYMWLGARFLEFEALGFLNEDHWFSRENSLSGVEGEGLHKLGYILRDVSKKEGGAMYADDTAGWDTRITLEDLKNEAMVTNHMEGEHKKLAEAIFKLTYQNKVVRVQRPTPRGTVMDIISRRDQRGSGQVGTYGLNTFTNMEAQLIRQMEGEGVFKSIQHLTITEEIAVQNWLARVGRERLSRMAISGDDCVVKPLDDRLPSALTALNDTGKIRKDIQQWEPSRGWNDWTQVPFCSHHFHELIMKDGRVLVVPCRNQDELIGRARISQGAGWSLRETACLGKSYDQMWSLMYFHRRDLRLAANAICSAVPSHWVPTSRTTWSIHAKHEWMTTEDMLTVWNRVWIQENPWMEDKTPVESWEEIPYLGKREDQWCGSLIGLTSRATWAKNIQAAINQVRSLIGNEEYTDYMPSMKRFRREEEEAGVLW

Structure (SMILES): O=C(O)CC1Oc2ccc(Cl)cc2NC1=O (centres undefined)
- Ki (fMet-Leu-Phe receptor): > 66.7 µM (inactive)

Structure (SMILES): Cc1ccc(S(=O)(=O)NCc2ccncc2)c(C)c1C
- IC50 [1]: > 80 µM (inactive)
- IC50 [2]: 5.99 µM (active)
- AC50 (INS1): 2.48 µM (active)

Structure (SMILES): COCCN(C(=O)c1cc2c(s1)CCC2)c1c(N)n(CC(C)C)c(=O)[nH]c1=O
- AC50 (Caspase-6): 22.4 µM (active)

Structure (SMILES): COc1ccc2nc(SCC(=O)N3CC(=O)Nc4ccccc43)c(C#N)cc2c1
- EC50 [3]: > 99 µM (inactive)
- EC50 [4]: > 99 µM (inactive)

Structure (SMILES): O=C(Cn1cnc2c(oc3ccccc32)c1=O)NCCc1ccccc1
- EC50 (cells [5]): > 29.9 µM (inactive)
- IC50 (cells [6]): > 29.9 µM (inactive)

Structure (SMILES): O=S(=O)(c1c[nH]cn1)N1CCc2ccccc21
- Ki (fMet-Leu-Phe receptor): > 66.7 µM (inactive)

Structure (SMILES): CCc1ccc[n+](-c2nc3ccccc3nc2[C-](C#N)C#N)c1
- EC50 [3]: 59.2 µM (inactive)
- EC50 [4]: > 99 µM (inactive)

Structure (SMILES): COC(=O)CCC(=O)OC1(C)C(=O)C2=CN(C3CCCC3)C(c3ccc(OC)cc3)=CC2=C(Br)C1=O (centres undefined)
- IC50 (Genome polyprotein): 33.8 µM (active)
- IC50 [7]: 17.4 µM (active)

Structure (SMILES): COc1cc(OC)c(OC)cc1/C=C(\C#N)C(=O)NCc1cccs1
- EC50 [3]: > 99 µM (inactive)
- EC50 [4]: > 99 µM (inactive)

Structure (SMILES): COc1ccc(-c2cc(C(=O)N3CCCC3)no2)cc1
- AC50 [8]: 5.22 µM (active)
- AC50 (HEK293): 3.97 µM (active)
- AC50 [9]: 5.07 µM (active)
